# Values quoted from earlier work, collected in patent publication US9532875B2, “Combined space maintenance and bone regeneration system for the reconstruction of large osseous defects” (WILLIAM MARSH RICE UNIVERSITY, priority 2010, dated 2017).
# Tested on: susceptible species
# Settings: reported
substance,measurement,value
Colistin sulfate salt,minimum inhibitory concentrations (MICs),0.5 to 5 µg/mL
